Assays:
Acetylcholinesterase = Acetylcholinesterase (Electrophorus electricus, UniProt O42275); test: (§1) Inhibition of Electrophorus electricus AChE
[1] = target: Acetylcholinesterase (Electrophorus electricus) (UniProt O42275); test: as §1
[2] = target: Acetylcholinesterase (Electrophorus electricus) (UniProt O42275); test: Inhibition of Electrophorus electricus AChE at 100 uM

Sequence of Acetylcholinesterase (Electrophorus electricus) (O42275 24-633 limits assumed): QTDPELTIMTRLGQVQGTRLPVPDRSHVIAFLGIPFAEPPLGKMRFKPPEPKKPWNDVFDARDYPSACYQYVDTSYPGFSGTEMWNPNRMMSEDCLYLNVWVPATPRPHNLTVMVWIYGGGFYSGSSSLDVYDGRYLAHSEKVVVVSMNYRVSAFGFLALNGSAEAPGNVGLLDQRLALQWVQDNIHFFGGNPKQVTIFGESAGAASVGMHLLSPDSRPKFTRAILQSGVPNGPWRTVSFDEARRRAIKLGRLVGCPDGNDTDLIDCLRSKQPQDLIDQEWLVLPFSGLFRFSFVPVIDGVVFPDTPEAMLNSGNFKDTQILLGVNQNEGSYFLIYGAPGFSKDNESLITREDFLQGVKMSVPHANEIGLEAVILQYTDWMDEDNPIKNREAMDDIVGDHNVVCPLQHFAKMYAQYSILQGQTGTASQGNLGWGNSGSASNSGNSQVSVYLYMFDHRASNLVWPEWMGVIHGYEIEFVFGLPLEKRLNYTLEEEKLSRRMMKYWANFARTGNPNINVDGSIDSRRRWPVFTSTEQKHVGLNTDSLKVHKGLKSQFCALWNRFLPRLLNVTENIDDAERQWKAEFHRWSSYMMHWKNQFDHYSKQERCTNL
Sequence of Acetylcholinesterase (O42275 whole entry): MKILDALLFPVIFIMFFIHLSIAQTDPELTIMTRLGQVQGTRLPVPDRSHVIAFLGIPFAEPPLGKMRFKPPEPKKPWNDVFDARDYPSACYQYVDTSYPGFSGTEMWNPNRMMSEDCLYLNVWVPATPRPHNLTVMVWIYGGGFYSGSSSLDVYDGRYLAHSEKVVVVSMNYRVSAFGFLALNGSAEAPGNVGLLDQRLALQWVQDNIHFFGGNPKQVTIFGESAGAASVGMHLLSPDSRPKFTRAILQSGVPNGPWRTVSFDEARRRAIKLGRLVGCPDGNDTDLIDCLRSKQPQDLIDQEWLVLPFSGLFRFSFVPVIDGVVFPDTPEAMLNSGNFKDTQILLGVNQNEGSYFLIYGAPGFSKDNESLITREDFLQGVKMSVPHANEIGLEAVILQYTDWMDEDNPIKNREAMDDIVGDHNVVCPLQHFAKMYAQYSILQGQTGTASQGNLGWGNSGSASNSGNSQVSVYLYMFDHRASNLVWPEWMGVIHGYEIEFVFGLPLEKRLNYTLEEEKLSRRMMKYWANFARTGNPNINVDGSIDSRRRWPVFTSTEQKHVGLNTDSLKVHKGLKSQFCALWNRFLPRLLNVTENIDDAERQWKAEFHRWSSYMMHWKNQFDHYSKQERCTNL

**Q.** For `CCCCCCCCCCCCCCC(c1cccc(OC(=O)N(C)C)c1)N1CCCC1` (stereo not drawn), which IC50 (Acetylcholinesterase) is on record?
**A.** 84.3 µM

**Q.** And the inhibition [1]?
**A.** Dose-dependent effect

**Q.** For `CCCCCCCCCCCCCCC(c1cccc(OC(=O)N(C)C)c1)N(CC)CC` (stereo not drawn), which IC50 (Acetylcholinesterase) is on record?
**A.** 251 µM

**Q.** What about the inhibition [1] of the same compound?
**A.** Dose-dependent effect

**Q.** With `CCCCCCCCCCCCCCC(c1cccc(OC(=O)N(C)C)c1)N(C)Cc1ccccc1` (stereo not drawn) as the compound, how does the inhibition [2] read?
**A.** 25%

**Q.** For `CCCCCCCCCCCCCCC(c1cccc(OC(=O)N(C)C)c1)N1CCCCC1` (stereo not drawn), which inhibition [2] is on record?
**A.** 25%

**Q.** Which results are given for `CCCCCCCCCCCCCCC(c1cccc(OC(=O)N(C)C)c1)N(C)C` (stereo not drawn)?
**A.** IC50 (Acetylcholinesterase): 50 µM; inhibition [1]: Dose-dependent effect

Reference: ChEMBL document CHEMBL1153768, “New potential AChE inhibitor candidates” (Eur J Med Chem, 2009)
